# Source: patent publication US20130059855A1, “CRYSTAL OF DI(ARYLAMINO)ARYL COMPOUND” (ASTELLAS PHARMA INC., priority 2010, published 2013)
# What was measured:
# [1] = Solubility in 50% acetone aqueous solution; assay type: physicochemical
# Experimental: (§1) The solubility of A02-type crystal, A03-type crystal and A04-type crystal was measured for 50% acetone aqueous solution. The solubility is lowest for A04-type crystal at all temperatures.
# [2] = Study of solvent-mediated transformation; assay type: physicochemical; conditions: slurry agitation in methyl ethyl ketone under room temperature
# Text: (§2) A05-type crystal was subjected to slurry agitation under room temperature and its solvent-mediated transformation was studied.
# [3] = Assessment of filterability (constant pressure filtration test, Ruth plot); assay type: physicochemical; conditions: for Filtration Constant B / Cake Average Specific Resistance αm: crystallization slurry, applied pressure 100 kPa; for Filtration Constant B: from inclination of Ruth plot; for Cake Average Specific Resistance αm: constant pressure filtration
# Text: Slurries of A02-type crystal prepared by a method similar to that of the Variation of Reference Example 2 and A04-type crystal prepared by a method similar to that of Example 2 were used to perform constant pressure filteration test, and the cake-average filteration specific resistance αm was obtained by constant pressure filteration formula of Ruth shown in formula (1) to assess filterability. Note that the slurry used in the present test is the crystallization slurry immediately before the crystals are collected by filtration in the preparation of the crystals.
# The calculation of cake average specific resistance αm [m/kg] was performed by plotting (Ruth plot) μ [m^3/m^2] and Δθ/Δν [sec/m], obtaining the filtration constant B from the inclination of the obtained line, and inserting the parameters shown in the filtration condition row of Table 1 to formula (2).
# [4] = Long term stability test (storage stability); assay type: physicochemical; conditions: powder X-ray diffraction, DSC, HPLC
# Experimental: A04-type crystal samples were separately stored for 3 months under (1) 40° C./75% R.H., (2) 60° C./uncontrolled humidity, and (3) 25° C./uncontrolled humidity/D65 lamp (1000 lux) illumination (2 months under condition (3)), and the change in the crystal form of the samples before and after storage was measured by powder X-ray diffraction and DSC analysis and the change in the purity of the same was confirmed by HPLC measurement (using HPLC Condition 1 or HPLC Condition 2 shown below as the measurement conditions).
# Hygroscopicity Test A = assay type: physicochemical; conditions: relative humidity of 93% (KNO3 saturated aqueous solution), 25° C., 7 days
# Experimental: About 0.5 g of A04-type crystal was weighed into an (open) weighing bottle with a known mass to obtain a precise mass, then the weighing bottle was placed in a desiccator adjusted to a relative humidity of 93% by KNO3 saturated aqueous solution and stored at 25° C. for 7 days before measuring the change in mass.
# [5] = Hygroscopicity Test B (water absorption/dehydration behavior); assay type: physicochemical; conditions: 25° C., humidity range of 5-95% R.H.
# Experimental: The water absorption/dehydration behavior of A04-type crystal was assessed using water balance measuring apparatus SGA-X100 (VTI) under the following conditions. Temperature: 25° C., measurement range: 5-95% R.H., measurement interval: 5%.
# [6] = Assessment of the stability level (solubility, transformation, DSC); assay type: physicochemical; conditions: all temperature range; A01- to A05-type crystals compared
# Experimental: as §1, §2
# The schematic diagram showing the interrelation of the stability levels of the crystals based on the above result is presented as FIG. 4.
# EML4-ALK fusion protein = conditions: reported in Patent Document 1 (WO 2009/008371); cited from earlier work
# mutant EGFR protein = conditions: reported in Patent Document 1 (WO 2009/008371); cited from earlier work
SMILES,Solubility ([1]; 25° C.),Solubility ([1]; 40° C.),Solubility ([1]; 55° C.),Filtration Constant B [3],Cake Average Specific Resistance αm [3],other results
"COc1cc(N2CCC(N3CCN(C)CC3)CC2)ccc1Nc1ncnc(Nc2ccccc2S(=O)(=O)C(C)C)n1 [A03-type crystal, N-{2-methoxy-4-[4-(4-methylpiperazin-1-yl)piperidin-1-yl]phenyl}-N′-[2-(propane-2-sulfonyl)phenyl]-1,3,5-triazine-2,4-diamine]",5.3 mg/mL,8.5 mg/mL,16.1 mg/mL,,,
"COc1cc(N2CCC(N3CCN(C)CC3)CC2)ccc1Nc1ncnc(Nc2ccccc2S(=O)(=O)C(C)C)n1 [A05-type crystal, N-{2-methoxy-4-[4-(4-methylpiperazin-1-yl)piperidin-1-yl]phenyl}-N′-[2-(propane-2-sulfonyl)phenyl]-1,3,5-triazine-2,4-diamine]",,,,,,solvent-mediated transformation [2]: transformed to A04-type crystal after 1 minute of agitation
"COc1cc(N2CCC(N3CCN(C)CC3)CC2)ccc1Nc1ncnc(Nc2ccccc2S(=O)(=O)C(C)C)n1 [A02-type crystal, N-{2-methoxy-4-[4-(4-methylpiperazin-1-yl)piperidin-1-yl]phenyl}-N′-[2-(propane-2-sulfonyl)phenyl]-1,3,5-triazine-2,4-diamine]",13.6 mg/mL,17.7 mg/mL,30.8 mg/mL,81406,1.31×10^11 m/kg,"cake average specific resistance relative to A04-type crystal ([3]; ratio of A02-type crystal to A04-type crystal, filtration time proportional): about 155 times"
"COc1cc(N2CCC(N3CCN(C)CC3)CC2)ccc1Nc1ncnc(Nc2ccccc2S(=O)(=O)C(C)C)n1 [A04-type crystal, N-{2-methoxy-4-[4-(4-methylpiperazin-1-yl)piperidin-1-yl]phenyl}-N′-[2-(propane-2-sulfonyl)phenyl]-1,3,5-triazine-2,4-diamine]",4.5 mg/mL,8.0 mg/mL,13.0 mg/mL,2201.7,8.43×10^8 m/kg,"change in the crystal form or the purity after storage ([4]; 25° C./uncontrolled humidity/D65 lamp (1000 lux) illumination, 2 months): no significant change; change in the crystal form or the purity after storage ([4]; 40° C./75% R.H., 3 months): no significant change; change in the crystal form or the purity after storage ([4]; 60° C./uncontrolled humidity, 3 months): no significant change; change in mass (hygroscopicity) (Hygroscopicity Test A): no significant change in mass; weight change through water absorption and dehydration [5]: lower than 0.1%; thermodynamic stability level among crystal forms of Compound A [6]: most stable crystal"
"COc1cc(N2CCC(N3CCN(C)CC3)CC2)ccc1Nc1ncnc(Nc2ccccc2S(=O)(=O)C(C)C)n1 [Compound A, N-{2-methoxy-4-[4-(4-methylpiperazin-1-yl)piperidin-1-yl]phenyl}-N′-[2-(propane-2-sulfonyl)phenyl]-1,3,5-triazine-2,4-diamine]",,,,,,inhibitory activity against the kinase activity of EML4-ALK fusion protein (EML4-ALK fusion protein): good inhibitory activity; inhibitory activity against the kinase activity of mutant EGFR protein (mutant EGFR protein): good inhibitory activity
